Patent US8273775B2, “Non-steroidal brassinosteroid mimetic” (priority 2006, dated 2012)

System: gene expression in Col-0 seedling shoots
Experiment: Microarray analysis (ATH1 Affymetrix) after BL or abrasin treatment
Type: in vivo, Arabidopsis
Conditions: 30 min
Procedure: FIG. 14: Clustering of gene expression profiles by QT-clust analysis. Clusters illustrating the major patterns of the data sets. Points: BIK-30: 30 μM abrasin 30 min; BL-30: 1 μM brassinolide 30 min; DMSO-30: control DMSO 30 min; BIK-120: 30 μM abrasin 120 min; BL-120: 1 μM brassinolide 120 min; DMSO-120: control DMSO 120 min.
Col-0 seeds were germinated vertically on ½ MS medium for 7 days under 16 h light/8 h dark cycles. The seedlings were overlaid with liquid ½ MS medium containing 1 μM brassinolide (BL, Fuji Chemical Industries, Ltd., Toyama, Japan), 30 μM abrasin (BIK, ChemBridge Corporation) and DMSO and treated for 30 and 120 min. The shoot parts were collected for RNA isolation. All sampling points were performed in three independent experiments. RNA was extracted using RNeasy kit (Qiagene). […] total RNA per array was used to hybridise the ATH1 Affymetrix Arabidopsis arrays according to standard procedure. The overrepresentation analyses were performed using BiNGO software (Maere et al., 2005).
We performed a microarray analysis using the Arabidopsis whole genome chip (Affymetix) to determine whether abrasin activated the expression of BR-inducible genes at transcriptional level. Wild-type Col-0 seedlings were exposed to 1 μM BL, 30 μM ABRASIN and DMSO (mock-treatment) for two time points (30 min and 120 min) and the shoot parts were collected for RNA isolation. The analysis of the variance of the normalized gene expression data took in account the variability parameters affecting the expression level: type of hormone treatment, duration of treatment and the interaction between these two.

O=C(O)CCC(=O)Nc1ccc(Br)cn1 [abrasin, 4-[(5-bromo-2-pyridinyl)amino]-4-oxobutanoic acid]
Fold-change AT4G16563 aspartyl protease family protein: 1.16
Fold-change AT4G16670 expressed protein: 0.79
Fold-change AT4G16780 homeobox-leucine zipper protein 4 (HAT4)/HD-ZIP protein: 0.54
Fold-change AT4G17250 expressed protein: 1.20
Fold-change AT4G17460 homeobox-leucine zipper protein 1 (HAT1)/HD-ZIP protein 1: 0.29
Fold-change AT4G21510 F-box family protein: 1.03
Fold-change AT4G23030 MATE efflux protein-related: 1.60
Fold-change AT4G23070 rhomboid family protein: 2.00
Fold-change AT4G23810 WRKY family transcription factor: 5.76
Fold-change AT4G24160 hydrolase, alpha/beta fold family protein: 1.42
Fold-change AT4G25620 hydroxyproline-rich glycoprotein family protein: 0.51
Fold-change AT4G25780 pathogenesis-related protein: 0.12
Fold-change AT4G27970 C4-dicarboxylate transporter/malic acid transport family protein: 2.43
Fold-change AT4G28240 wound-responsive protein-related: 0.49
Fold-change AT4G28490 leucine-rich repeat transmembrane protein kinase, putative: 1.20
Fold-change AT4G28703 expressed protein: 1.95
Fold-change AT4G28780 GDSL-motif lipase/hydrolase family protein: 1.00
Fold-change AT4G29070 expressed protein: 0.78
Fold-change AT4G30080 transcriptional factor B3 family protein: 0.89
Fold-change AT4G31020 expressed protein: 2.67
Fold-change AT4G32280 auxin-responsive AUX/IAA family protein (IAA29): 0.32
Fold-change AT4G33050 calmodulin-binding family protein: 2.38
Fold-change AT4G33700 CBS domain-containing protein: 0.73
Fold-change AT4G34610 homeodomain-containing protein: 1.02
Fold-change AT4G36110 auxin-responsive protein: 1.16
Fold-change AT4G36780 brassinosteroid signalling positive regulator-related: 0.49
Fold-change AT4G37240 expressed protein: 0.79
Fold-change AT4G37290 expressed protein: 0.95
Fold-change AT4G37590 phototropic-responsive NPH3 family protein: 1.04
Fold-change AT4G38840 auxin-responsive protein (SAUR14): 1.01
Fold-change AT4G38850 auxin-responsive protein (SAUR-AC1): 1.00
Fold-change AT4G38860 auxin-responsive protein (SAUR16): 0.79
Fold-change AT4G39400 brassinosteroid insensitive 1 (BRI1): 0.71
Fold-change AT5G02020 expressed protein: 1.01
Fold-change AT5G05690 cytochrome P450 90A1 (CYP90A1) (CYP90) (CPD): 0.63
Fold-change AT5G07690 myb family transcription factor (MYB29): 0.58
Fold-change AT5G08130 basic helix-loop-helix (bHLH) family protein (BIM2): 0.76
Fold-change AT5G12050 expressed protein: 0.52
Fold-change AT5G13180 no apical meristem (NAM) family protein: 0.77
Fold-change AT5G13740 sugar transporter family protein: 0.81
Fold-change AT5G14730 expressed protein: 0.38
Fold-change AT5G16200 50S ribosomal protein-related: 0.37
Fold-change AT5G16980 NADP-dependent oxidoreductase: 1.11
Fold-change AT5G18750 DNAJ heat shock N-terminal domain-containing protein: 1.91
Fold-change AT5G19200 short-chain dehydrogenase/reductase (SDR) family protein: 1.00
Fold-change AT5G19340 expressed protein: 0.83
Fold-change AT5G24030 C4-dicarboxylate transporter/malic acid transport family protein: 2.35
Fold-change AT5G24660 expressed protein: 2.43
Fold-change AT5G25240 expressed protein: 0.74
Fold-change AT5G25930 leucine-rich repeat family protein: 2.65
Fold-change AT5G27350 sugar-porter family protein 1 (SFP1): 1.07
Fold-change AT5G27670 histone H2A: 0.79
Fold-change AT5G38310 expressed protein: 1.00
Fold-change AT5G38990; AT5G39000 [AT5G38990, protein kinase family protein: 1.40
Fold-change AT5G39050 transferase family protein: 1.49
Fold-change AT5G39610 no apical meristem (NAM) family protein: 0.72
Fold-change AT5G39970 expressed protein: 1.42
Fold-change AT5G42830 transferase family protein: 1.03
Fold-change AT5G47370 homeobox-leucine zipper protein 2 (HAT2): 0.51
Fold-change AT5G48070 putative xyloglucan endotransglycosylase/hydrolase: 1.48
Fold-change AT5G48540 33 kDa secretory protein-related: 2.45
Fold-change AT5G51550 phosphate-responsive 1 family protein: 1.02
Fold-change AT5G54490 calcium-binding EF-hand protein, putative: 0.73
Fold-change AT5G54860 integral membrane transporter family protein: 1.69
Fold-change AT5G55970 zinc finger (C3HC4-type RING finger) family protein: 0.96
Fold-change AT5G56980 expressed protein: 0.43
Fold-change AT5G57190 phosphatidylserine decarboxylase: 1.32
Fold-change AT5G57780 expressed protein: 0.35
Fold-change AT5G59080 expressed protein: 0.46
Fold-change AT5G60200 Dof-type zinc finger domain-containing protein: 1.36
Fold-change AT5G60270 lectin protein kinase family protein: 0.96
Fold-change AT5G60630 expressed protein: 0.99
Fold-change AT5G61600 encodes a member of the ERF (ethylene response factor): 0.53
Fold-change AT5G62360 invertase/pectin methylesterase inhibitor family protein: 0.52
Fold-change AT5G65310 homeobox-leucine zipper protein 5 (HB-5)/HD-ZIP transcription factor 5: 0.90
Fold-change AT5G66420 expressed protein: 0.92
Fold-change AT5G66590 allergen V5/Tpx-1-related family protein: 0.53
Fold-change AT5G67450 zinc finger (C2H2 type) protein 1 (AZF1): 6.17
Fold-change of gene AT4G16140 (proline-rich family protein) (245479_at, Cluster 6): 1.16
Fold-change of gene AT4G15260 (UDP-glucoronosyl/UDP-glucosyl transferase family protein) (245543_at, Cluster 7): 1.41
Fold-change of gene AT5G09440 (phosphate-responsive protein, putative) (245885_at, Cluster 5): 0.38
Fold-change of gene AT1G77380 (amino acid carrier) (246389_at, Cluster 10): 1.32
Fold-change of gene AT5G15740 (expressed protein) (246516_at, Cluster 5): 0.78
Fold-change of gene AT5G65300 (expressed protein) (247177_at, Cluster 5): 0.31
Fold-change of gene AT5G64890 (expressed protein) (247205_at, Cluster 10): 1.01
Fold-change of gene AT5G63790 (no apical meristem (NAM) family protein) (247351_at, Cluster 9): 0.88
Fold-change of gene AT5G62630 (expressed protein) (247444_at, Cluster 7): 1.62
Fold-change of gene AT5G60850 (Dof-type zinc finger domain-containing protein) (247601_at, Cluster 10): 0.51
Fold-change of gene AT5G59510 (expressed protein) (247704_at, Cluster 9): 1.00
Fold-change of gene AT5G58660 (oxidoreductase. 2OG-Fe(II) oxygenase family protein) (247774_at, Cluster 5): 1.15
Fold-change of gene AT5G54120 (expressed protein) (248190_at, Cluster 5): 0.82
Fold-change of gene AT5G54130 (calcium-binding EF hand family protein) (248191_at, Cluster 5): 0.84
Fold-change of gene AT5G52900 (expressed protein) (248282_at, Cluster 6): 1.70
Fold-change of gene AT5G49100 (expressed protein) (248646_at, Cluster 9): 0.72
Fold-change of gene AT5G18060 (auxin-responsive protein) (250012_x_at, Cluster 6): 1.00
Fold-change of gene AT5G09800 (U-box domain-containing protein) (250493_at, Cluster 9): 1.04
Fold-change of gene AT5G08565 (expressed protein) (250537_at, Cluster 8): 0.87
Fold-change of gene AT5G03670 (expressed protein) (250907_at, Cluster 5): 0.61
Fold-change of gene AT5G01740 (expressed protein) (251072_at, Cluster 5): 0.33
Fold-change of gene AT3G63380 (calcium-transporting ATPase) (251176_at, Cluster 10): 0.85
Fold-change of gene AT3G60690 (auxin-responsive family protein) (251342_at, Cluster 9): 0.91
Fold-change of gene AT3G45610 (Dof-type zinc finger domain) (252586_at, Cluster 10): 0.94
Fold-change of gene AT3G44610 (protein kinase family protein) (252646_at, Cluster 5): 0.83
Fold-change of gene AT4G34760 (auxin-responsive family protein) (253255_at, Cluster 6): 1.80
Fold-change of gene AT4G34138 (UDP-glucoronosyl/UDP-glucosyl transferase family protein) (253281_at, Cluster 7): 1.52
Fold-change of gene AT4G31910 (transferase family protein) (253483_at, Cluster 5): 1.46
Fold-change of gene AT4G30410 (expressed protein) (253617_at, Cluster 5): 0.94
Fold-change of gene AT4G30450 (glycine-rich protein) (253629_at, Cluster 5): 0.84
Fold-change of gene AT4G26200 (1-aminocyclopropane-1-carboxylate synthase) (253999_at, Cluster 9): 1.11
Fold-change of gene AT4G03400 (auxin-responsive GH3 family protein) (255403_at, Cluster 6): 0.81
Fold-change of gene AT4G02700 (sulfate transporter) (255443_at, Cluster 7): 1.76
Fold-change of gene AT1G22190 (AP2 domain-containing transcription factor) (255926_at, Cluster 8): 0.45
Fold-change of gene AT1G66140 (zinc finger (C2H2 type) family protein) (256528_at, Cluster 6): 0.87
Fold-change of gene AT3G25655 (expressed protein) (256762_at, Cluster 8): 1.00
Fold-change of gene AT3G21420 (oxidoreductase, 2OG-Fe(II) oxygenase family protein) (256818_at, Cluster 7): 1.13
Fold-change of gene AT3G18280 (protease inhibitor/seed storage/lipid transfer protein) (257066_at, Cluster 5): 1.03
Fold-change of gene AT1G29440 (auxin-responsive family protein) (257506_at, Cluster 6): 0.96
Fold-change of gene AT3G29200 (chorismate mutase, chloroplast (CM1)) (257746_at, Cluster 5): 0.83
Fold-change of gene AT1G13260 (DNA-binding protein RAV1 (RAV1)) (259364_at, Cluster 8): 0.32
Fold-change of gene AT1G29500 (auxin-responsive protein) (259773_at, Cluster 6): 1.01
Fold-change of gene AT1G29510 (auxin-responsive protein) (259783_at, Cluster 6): 1.02
Fold-change of gene AT1G29450 (auxin-responsive protein) (259784_at, Cluster 6): 0.99
Fold-change of gene AT1G29460 (auxin-responsive protein) (259787_at, Cluster 6): 1.23
Fold-change of gene AT1G76690; AT1G76680 ([AT1G76690, 12-oxophytodienoate reductase (OPR2)) (259875_s_at, Cluster 7): 1.95
Fold-change of gene AT1G76620 (expressed protein) (259985_at, Cluster 8): 0.90
Fold-change of gene AT1G63720 (expressed protein) (260243_at, Cluster 10): 0.92
Fold-change of gene AT1G48100 (glycoside hydrolase family 28 protein) (260727_at, Cluster 8): 0.92
Fold-change of gene AT1G12200 (flavin-containing monooxygenase family protein) (261023_at, Cluster 7): 1.44
Fold-change of gene AT1G12845 (expressed protein) (261203_at, Cluster 6): 1.66
Fold-change of gene AT1G15550 (gibberellin 3-beta-dioxygenase) (261768_at, Cluster 6): 1.12
Fold-change of gene AT1G80840 (WRKY family transcription factor) (261892_at, Cluster 9): 0.43
Fold-change of gene AT1G80080 (leucine-rich repeat family protein) (262040_at, Cluster 6): 1.56
Fold-change of gene AT1G80130 (expressed protein) (262050_at, Cluster 8): 0.90
Fold-change of gene AT1G21680 (expressed protein) (262505_at, Cluster 10): 0.82
Fold-change of gene AT1G34245 (expressed protein) (262543_at, Cluster 6): 1.69
Fold-change of gene AT1G78460 (SOUL heme-binding family protein) (263126_at, Cluster 7): 1.01
Fold-change of gene AT1G78820; AT1G78830 ([AT1G78820, curculin-like (mannose-binding) lectin family protein) (264279_s_at, Cluster 7): 1.27
